Measured values as given in patent publication US10197579B2, “Methods for measurement of inhibition of c-Jun N-terminal kinase in skin” (Signal Pharmaceuticals, LLC, priority 2014, dated 2019).

System: phosphorylation of c-Jun at Ser63 in HEKa cells
Experiment: UVB-induced c-Jun Ser63 phosphorylation in HEKa keratinocytes (Western immunoblotting)
Assay type: cell-based, Human
Conditions: HEKa cells from four donors; 50 mJ/cm^2 UVB; Compound 1 added 1 hour before and kept 30 minutes after irradiation; nuclear extract, Western blot (FIGS. 1-5)
Description: Adult Normal Human […] Keratinocytes (HEKa) were obtained from ScienCell. Cells were plated in 10 cm dishes and incubated to allow attachment and then serum starved overnight. Compound 1 was added 1 hour before the cells were irradiated with 50 mJ/cm^2 UVB. Cells were incubated with Compound 1 for an additional 30 minutes after UVB irradiation. Cells were then lysed and nuclear and cytoplasmic proteins were isolated using the Nuclear Extraction kit by Active Motif. Protein was run on 10% tris glycine gels and transferred to nitrocellulose membranes. Blots were blocked for 1 hour. Total and phosphorylated c-Jun primary antibodies were added and incubated overnight. Licor secondary antibodies were added and blots were read on the Li-Cor Odyssey. 1-5. There was increased phosphorylation of c-Jun at Ser63 with 50 mJ/cm^2 UVB radiation, and inhibition by Compound 1 (FIGS. 1-5). There was also good separation of the nuclear and cytoplasmic proteins (c-Jun is only in the nucleus) (FIGS. 1-4).

C[C@@H]1CC[C@@H](Nc2nc(NC(C)(C)C)ncc2C(N)=O)C[C@H]1O [Compound 1, 2-(tert-butylamino)-4-((1R,3R,4R)-3-hydroxy-4-methylcyclohexylamino)-pyrimidine-5-carboxamide]
inhibition of phosphorylation of c-Jun at Ser63 induced by UVB radiation: inhibits c-Jun phosphorylation at Ser63 in a dose dependent manor
